Laboratory results from PubChem BioAssay AID1259407 (Chemical Carcinogenesis Research Information System (CCRIS), 2018).
Active and inactive are the calls of the source. The rule behind the calls is not given here.

System: CCRIS mutagenicity, Ames/micronucleus/aberration tests
Assay: CCRIS mutagenicity studies
[1] = Test System: AMES SALMONELLA TYPHIMURIUM, Strain/Indicator: TA100, Metabolic Activation: NONE, Method: STANDARD PLATE

Which results are given for `OCc1c2ccccc2cc2ccccc12`?
mutagenic call (End Point: In vitro chromosomal aberrations, Test System: Chinese hamster lung (CHL/IU) cells, Metabolic Activation: Rat, Liver, S9, Phenobarbital and 5,6-benzoflavone): active; positive (structural changes) (weak response). precipitation in the culture medi; mutagenic call (Test System: AMES SALMONELLA TYPHIMURIUM, Strain/Indicator: TA98, Metabolic Activation: HUMAN, LIVER, CYTOSOL, PAPS, Method: PREINCUBATION): active; positive; mutagenic call (Test System: Ames Salmonella typhimurium, Strain/Indicator: TA98, Metabolic Activation: None, Method: Preincubation): inactive; negative; mutagenic call (Test System: Ames Salmonella typhimurium, Strain/Indicator: TA98, Metabolic Activation: Rat, Liver, S9, Sodium phenobarbital and 5,6-benzoflavone (10%), Method: Preincubation): inactive; negative; mutagenic call (Test System: Ames Salmonella typhimurium, Strain/Indicator: TA98, Metabolic Activation: Rat, Liver, S9, Sodium phenobarbital and 5,6-benzoflavone (30%), Method: Preincubation): inactive; negative; mutagenic call (Test System: Ames Salmonella typhimurium, Strain/Indicator: TA100, Metabolic Activation: None, Method: Preincubation): inactive; negative; mutagenic call (Test System: Ames Salmonella typhimurium, Strain/Indicator: TA100, Metabolic Activation: Rat, Liver, S9, Sodium phenobarbital and 5,6-benzoflavone (10%), Method: Preincubation): inactive; negative; mutagenic call (Test System: Ames Salmonella typhimurium, Strain/Indicator: TA100, Metabolic Activation: Rat, Liver, S9, Sodium phenobarbital and 5,6-benzoflavone (30%), Method: Preincubation): active; positive; mutagenic call (Test System: Ames Salmonella typhimurium, Strain/Indicator: TA1535, Metabolic Activation: None, Method: Preincubation): inactive; negative; mutagenic call (Test System: Ames Salmonella typhimurium, Strain/Indicator: TA1535, Metabolic Activation: Rat, Liver, S9, Sodium phenobarbital and 5,6-benzoflavone (10%), Method: Preincubation): inactive; negative; mutagenic call (Test System: Ames Salmonella typhimurium, Strain/Indicator: TA1535, Metabolic Activation: Rat, Liver, S9, Sodium phenobarbital and 5,6-benzoflavone (30%), Method: Preincubation): inactive; negative; mutagenic call (Test System: Ames Salmonella typhimurium, Strain/Indicator: TA1537, Metabolic Activation: None, Method: Preincubation): inactive; negative; mutagenic call (Test System: Ames Salmonella typhimurium, Strain/Indicator: TA1537, Metabolic Activation: Rat, Liver, S9, Sodium phenobarbital and 5,6-benzoflavone (10%), Method: Preincubation): active; positive (weak); mutagenic call (Test System: Ames Salmonella typhimurium, Strain/Indicator: TA1537, Metabolic Activation: Rat, Liver, S9, Sodium phenobarbital and 5,6-benzoflavone (30%), Method: Preincubation): inactive; negative; mutagenic call (Test System: E. coli, Strain/Indicator: WP2uvrA/pKM101, Metabolic Activation: Rat, Liver, S9, Sodium phenobarbital and 5,6-benzoflavone (30%), Method: Preincubation): inactive; negative

With `CC1C=CC(=O)O1` (stereo not given) as the molecule, how does the mutagenic call (Test System: AMES SALMONELLA TYPHIMURIUM, Strain/Indicator: TA98, Metabolic Activation: NONE, Method: PREINCUBATION) read?
The mutagenic call was “inactive; negative”.

And the mutagenic call (Test System: AMES SALMONELLA TYPHIMURIUM, Strain/Indicator: TA98, Metabolic Activation: RAT, LIVER, S-9, AROCLOR 1254, Method: PREINCUBATION)?
Its mutagenic call is “inactive; negative”.

And the mutagenic call (Test System: AMES SALMONELLA TYPHIMURIUM, Strain/Indicator: TA100, Metabolic Activation: NONE, Method: PREINCUBATION)?
The mutagenic call was “inactive; negative”.

What about the mutagenic call (Test System: AMES SALMONELLA TYPHIMURIUM, Strain/Indicator: TA100, Metabolic Activation: RAT, LIVER, S-9, AROCLOR 1254, Method: PREINCUBATION) of the same molecule?
Its mutagenic call is “inactive; negative”.

What about the mutagenic call (Test System: AMES SALMONELLA TYPHIMURIUM, Strain/Indicator: TA102, Metabolic Activation: NONE, Method: PREINCUBATION) of the same molecule?
Its mutagenic call is “inactive; negative”.

And the mutagenic call (Test System: AMES SALMONELLA TYPHIMURIUM, Strain/Indicator: TA102, Metabolic Activation: RAT, LIVER, S-9, AROCLOR 1254, Method: PREINCUBATION)?
The mutagenic call was “inactive; negative”.

How did the mutagenic call (End Point: IN VITRO CHROMOSOMAL ABERRATIONS, Test System: CHINESE HAMSTER OVARY CELLS, Metabolic Activation: NONE) turn out when `N#Cc1c(Cl)c(Cl)c(Cl)c(C#N)c1Cl` was run?
The mutagenic call was “active; positive”.

And the mutagenic call (End Point: IN VITRO CHROMOSOMAL ABERRATIONS, Test System: CHINESE HAMSTER OVARY CELLS, Metabolic Activation: RAT, LIVER, S-9, AROCLOR 1254)?
The mutagenic call was “active; positive”.

How did the mutagenic call [1] turn out when `Cc1ccc(CCl)cc1` was run?
The mutagenic call was “inactive; negative”.

`N/C(=N\O)c1ccc([N+](=O)[O-])o1` was tested. Which mutagenic call [1] did it give?
Its mutagenic call is “active; positive”.
